Assay results reported in US11053218B2, “3-(1-oxoisoindolin-2-yl)piperidine-2,6-dione derivatives and uses thereof” (Novartis AG, priority 2017, dated 2021).
Where two headings read alike, the source gives them in different places.

What was measured:
IKZF2 = IKZF2 (Homo sapiens, UniProt Q96SW2+Q9UKS7); experiment: Prolabel quantification of IKZF2 protein levels in 293GT cells; format: cell-based
Experimental: (§1) The Prolabel system from DiscoverX was used to develop high-throughput and quantitative assays to measure changes in IKZF1, IKZF2 and GSPT1 protein levels in response to compounds. The prolabel tag was derived from the alpha fragment of beta galactosidase and has the following protein sequence: mssnslavvlqrrdwenpgvtqlnrlaahppfaswrnseeartdrpsqqlrslnge. The complementary fragment of beta-galactosidase (from DiscoverX), is added to the prolabel tag to form an active beta galactosidase enzyme whose activity can be precisely measured. In this way, the levels of a fusion protein with the prolabel tag can be quantified in cell lysates.
(§2) Lentiviral vectors, based on the Invitrogen pLenti6.2/V5 DEST backbone, were constructed that placed the prolabel tag upstream of IKZF1, IKZF2 or GSPT1 and expressed the fusion protein from a CMV promoter.
(§3) To ensure moderate and consistent expression of the prolabel fusion proteins across all cells in the population, stable cell lines were constructed from cells expressing a single copy of the construct. Lentivirus packaged with the constructs was made using the Virapower kit from Invitrogen.
(§4) The levels of prolabel tagged fusion proteins in compound treated cell lines were measured as follows:
(§5) Day 1, Cells were diluted to 1.0×10^6 cells/ml in normal growth medium. 17.5 μL of cells were plated in each well of a solid white 384 well plate. Plates were incubated overnight in a 37° C. tissue culture incubator.
(§6) Day 2, Serial dilutions of compounds were made in 384 well plates from 10 mM stocks. 15 μL of DMSO was added to each well of a 384 well plate. In the first column 15 μL of stock compound was added. The solution was mixed and 15 μL was transferred to the next column. This was repeated until 20 two-fold dilutions were prepared. 2.5 μL of diluted compounds were transferred into 60 μL of cell culture medium in another 384 well plate, and mixed well. 2.5 μL of this mixture was added to the plated cells. The final DMSO concentration was 0.5% and the highest concentration of compound was 50 μM. Plates were incubated overnight (e.g., about 14 h, 18 h, or 24 h) in a 37° C. tissue culture incubator.
(§7) Day 3, Plates were removed from the incubator and allowed to equilibrate at rt for 30 minutes. Prolabel substrate (DiscoverX PathHunter Prolabel Detection Kit, User manual: 93-0180) was added as described by the manufacturers protocols. Plates were incubated at rt for three hours and luminescence was read using an Envision reader (Perkin Elmer) Data was analyzed and visualized using the Spotfire software package.

IKZF1 = IKZF1 (Homo sapiens, UniProt Q13422+Q96SW2); experiment: Prolabel quantification of IKZF1 protein levels in 293GT cells; format: cell-based; conditions: Prolabel assay, read-out: IKZF1 EC50
Experimental: as §1, §2, §3, §4, §5, §6, §7

[1] = 24 h, 10 μM, 24 h, 293GT cells; read-out: IKZF2 % protein reduction at 10 μM, 24 h
[2] = Prolabel assay, 293GT cells; read-out: IKZF2 EC50
[3] = 10 μM, 24 h, 293GT cells; read-out: IKZF2 % protein reduction at 10 μM, 24 h

IKZF2, sequence (Q9UKS7 whole entry, the tested form may be a part): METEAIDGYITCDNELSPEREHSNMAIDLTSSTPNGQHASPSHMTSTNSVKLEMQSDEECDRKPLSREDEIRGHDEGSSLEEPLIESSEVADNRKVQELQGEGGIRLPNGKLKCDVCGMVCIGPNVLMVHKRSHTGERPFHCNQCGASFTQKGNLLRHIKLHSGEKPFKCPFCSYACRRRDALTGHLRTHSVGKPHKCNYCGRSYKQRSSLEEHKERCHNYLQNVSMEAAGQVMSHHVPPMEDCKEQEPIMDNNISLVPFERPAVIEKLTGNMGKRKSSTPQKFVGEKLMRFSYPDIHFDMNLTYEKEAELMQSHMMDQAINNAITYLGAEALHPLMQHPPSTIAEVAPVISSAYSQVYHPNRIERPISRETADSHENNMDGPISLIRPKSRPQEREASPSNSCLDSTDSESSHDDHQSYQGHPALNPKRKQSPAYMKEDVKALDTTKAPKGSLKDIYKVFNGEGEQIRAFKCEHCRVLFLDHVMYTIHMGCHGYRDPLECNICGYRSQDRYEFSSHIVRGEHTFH
IKZF2, sequence (Q96SW2 whole entry, the tested form may be a part): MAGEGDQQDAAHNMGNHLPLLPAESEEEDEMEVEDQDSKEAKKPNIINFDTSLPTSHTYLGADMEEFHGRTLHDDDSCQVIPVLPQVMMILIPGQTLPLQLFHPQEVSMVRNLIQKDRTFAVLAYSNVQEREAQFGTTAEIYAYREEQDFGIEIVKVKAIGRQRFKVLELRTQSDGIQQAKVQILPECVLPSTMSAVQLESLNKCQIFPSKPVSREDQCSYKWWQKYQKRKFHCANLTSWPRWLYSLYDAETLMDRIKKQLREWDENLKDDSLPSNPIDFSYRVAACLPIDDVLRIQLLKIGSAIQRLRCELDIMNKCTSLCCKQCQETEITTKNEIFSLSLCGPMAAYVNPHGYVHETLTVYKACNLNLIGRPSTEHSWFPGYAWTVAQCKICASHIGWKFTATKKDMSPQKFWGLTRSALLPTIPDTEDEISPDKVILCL
IKZF2, sequence (Q16531 whole entry partner, the tested form may be a part): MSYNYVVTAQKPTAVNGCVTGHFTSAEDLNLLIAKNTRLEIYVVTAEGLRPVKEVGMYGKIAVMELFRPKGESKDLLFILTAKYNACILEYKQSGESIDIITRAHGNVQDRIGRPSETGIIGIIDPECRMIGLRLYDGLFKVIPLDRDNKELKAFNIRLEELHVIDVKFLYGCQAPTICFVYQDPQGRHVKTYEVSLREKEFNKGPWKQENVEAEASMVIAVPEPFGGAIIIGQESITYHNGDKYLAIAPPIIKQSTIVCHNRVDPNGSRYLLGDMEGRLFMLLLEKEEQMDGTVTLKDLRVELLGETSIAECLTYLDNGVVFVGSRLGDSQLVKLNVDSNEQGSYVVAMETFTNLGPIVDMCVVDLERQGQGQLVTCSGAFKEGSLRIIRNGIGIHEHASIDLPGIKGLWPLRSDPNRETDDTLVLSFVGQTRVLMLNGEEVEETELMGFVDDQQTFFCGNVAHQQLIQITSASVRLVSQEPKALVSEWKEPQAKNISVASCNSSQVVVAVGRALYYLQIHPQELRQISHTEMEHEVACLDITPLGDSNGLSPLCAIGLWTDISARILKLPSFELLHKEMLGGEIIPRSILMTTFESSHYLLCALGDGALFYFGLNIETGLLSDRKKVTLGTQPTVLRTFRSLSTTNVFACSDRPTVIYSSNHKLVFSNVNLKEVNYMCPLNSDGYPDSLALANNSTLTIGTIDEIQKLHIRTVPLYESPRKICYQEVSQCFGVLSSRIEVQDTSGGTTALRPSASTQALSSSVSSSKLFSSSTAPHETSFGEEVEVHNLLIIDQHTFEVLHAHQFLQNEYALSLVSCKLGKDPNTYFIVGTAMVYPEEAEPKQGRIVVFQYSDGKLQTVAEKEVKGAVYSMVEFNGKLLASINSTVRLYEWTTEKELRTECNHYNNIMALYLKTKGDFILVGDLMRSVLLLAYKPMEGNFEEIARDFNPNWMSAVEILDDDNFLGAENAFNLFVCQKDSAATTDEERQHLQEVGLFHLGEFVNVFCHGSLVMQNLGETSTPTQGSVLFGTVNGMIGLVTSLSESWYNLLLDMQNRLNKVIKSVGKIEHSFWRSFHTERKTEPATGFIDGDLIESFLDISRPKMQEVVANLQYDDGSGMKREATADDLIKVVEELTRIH
IKZF1, sequence (Q13422 whole entry): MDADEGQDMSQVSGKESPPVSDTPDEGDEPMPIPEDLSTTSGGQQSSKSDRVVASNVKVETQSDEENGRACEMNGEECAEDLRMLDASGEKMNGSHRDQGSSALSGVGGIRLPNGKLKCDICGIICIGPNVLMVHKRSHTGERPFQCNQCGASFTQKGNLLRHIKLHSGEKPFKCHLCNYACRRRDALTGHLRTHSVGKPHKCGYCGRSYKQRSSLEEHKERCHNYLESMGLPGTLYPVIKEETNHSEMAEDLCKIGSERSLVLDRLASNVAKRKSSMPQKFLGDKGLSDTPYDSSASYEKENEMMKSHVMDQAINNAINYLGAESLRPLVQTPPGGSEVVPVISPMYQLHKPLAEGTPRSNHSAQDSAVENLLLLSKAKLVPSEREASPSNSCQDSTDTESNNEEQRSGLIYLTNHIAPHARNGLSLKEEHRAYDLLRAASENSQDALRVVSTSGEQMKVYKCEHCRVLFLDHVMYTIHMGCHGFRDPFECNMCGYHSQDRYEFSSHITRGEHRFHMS
IKZF1, sequence (Q96SW2 whole entry): as the sequence (Q96SW2 whole entry, the tested form may be a part) above
IKZF1, sequence (Q16531 whole entry partner): as the sequence (Q16531 whole entry partner, the tested form may be a part) above

Structure (SMILES) | inhibition at 10 µM (IKZF2; [1]) | DC50 (IKZF2; [2]) | DC50 (IKZF1) | inhibition at 10 µM (IKZF2; [3])
O=C1CCC(N2Cc3cc(C4CCN(C(CF)c5ccccc5)CC4)ccc3C2=O)C(=O)N1 (stereo not drawn) [Compound I-212, 3-(5-(1-(2-fluoro-1-phenylethyl)piperidin-4-yl)-1-oxoisoindolin-2-yl)piperidine-2,6-dione] | 60% | 49 nM | > 30 µM | –
COCc1ccc(CN2CCC(c3ccc4c(c3)CN(C3CCC(=O)NC3=O)C4=O)CC2)cc1 (stereo not drawn) [Compound I-248, 3-(5-(1-(4-(methoxymethyl)benzyl)piperidin-4-yl)-1-oxoisoindolin-2-yl)piperidine-2,6-dione] | 70% | 16 nM | > 30 µM | –
Cc1cn(C)c(CN2CCC(c3ccc4c(c3)CN(C3CCC(=O)NC3=O)C4=O)CC2)n1 (stereo not drawn) [Compound I-129, 3-(5-(1-((1,4-dimethyl-1H-imidazol-2-yl)methyl)piperidin-4-yl)-1-oxoisoindolin-2-yl)piperidine-2,6-dione] | 40% | 190 nM | > 30 µM | –
O=C1CCC(N2Cc3cc(C4=CCN(Cc5ccccc5)CC4)ccc3C2=O)C(=O)N1 (stereo not drawn) [Compound I-172, 3-(5-(1-benzyl-1,2,3,6-tetrahydropyridin-4-yl)-1-oxoisoindolin-2-yl)piperidine-2,6-dione] | – | 103 nM | 0.25 µM | 60%
O=C1CCC(N2Cc3cc(C4CCN(Cc5cnc[nH]5)CC4)ccc3C2=O)C(=O)N1 (stereo not drawn) [Compound I-120, 3-(5-(1-((1H-imidazol-5-yl)methyl)piperidin-4-yl)-1-oxoisoindolin-2-yl)piperidine-2,6-dione] | 50% | 830 nM | > 30 µM | –
O=C1CCC(N2Cc3cc(C4CCN(CC5CC5)CC4)ccc3C2=O)C(=O)N1 (stereo not drawn) [Compound I-3, 3-(5-(1-(cyclopropylmethyl)piperidin-4-yl)-1-oxoisoindolin-2-yl)piperidine-2,6-dione] | 60% | 23 nM | > 30 µM | –
CCn1ccc(CN2CCC(c3ccc4c(c3)CN(C3CCC(=O)NC3=O)C4=O)CC2)n1 (stereo not drawn) [Compound I-121, 3-(5-(1-((1-ethyl-1H-pyrazol-3-yl)methyl)piperidin-4-yl)-1-oxoisoindolin-2-yl)piperidine-2,6-dione] | 60% | 62 nM | > 30 µM | –
CCCc1ccc(CN2CCC(c3ccc4c(c3)CN(C3CCC(=O)NC3=O)C4=O)CC2)cc1 (stereo not drawn) [Compound I-75, 3-(1-oxo-5-(1-(4-propylbenzyl)piperidin-4-yl)isoindolin-2-yl)piperidine-2,6-dione] | 80% | 20 nM | > 30 µM | –
O=C1CCC(N2Cc3cc(C4CCN(Cc5ccc6c(c5)CCCC6)CC4)ccc3C2=O)C(=O)N1 (stereo not drawn) [Compound I-175, 3-(1-oxo-5-(1-((5,6,7,8-tetrahydronaphthalen-2-yl)methyl)piperidin-4-yl)isoindolin-2-yl)piperidine-2,6-dione] | 50% | 5 nM | > 50 µM | –
CC1CN(Cc2ccccc2)CCC1c1ccc2c(c1)CN(C1CCC(=O)NC1=O)C2=O (stereo not drawn) [Compound I-187, 3-(5-(1-benzyl-3-methylpiperidin-4-yl)-1-oxoisoindolin-2-yl)piperidine-2,6-dione] | 50% | 67 nM | > 30 µM | –
CC(C)(C)c1ccc(CN2CCC(c3ccc4c(c3)CN(C3CCC(=O)NC3=O)C4=O)CC2)cc1 (stereo not drawn) [Compound I-84, 3-(5-(1-(4-(tert-butyl)benzyl)piperidin-4-yl)-1-oxoisoindolin-2-yl)piperidine-2,6-dione] | – | 15 nM | > 30 µM | 60%
O=C1CCC(N2Cc3cc(C4CCN(Cc5cn[nH]c5)CC4)ccc3C2=O)C(=O)N1 (stereo not drawn) [Compound I-116, 3-(5-(1-((1H-pyrazol-4-yl)methyl)piperidin-4-yl)-1-oxoisoindolin-2-yl)piperidine-2,6-dione] | 60% | 160 nM | > 30 µM | –
O=C1CCC(N2Cc3cc(C4=CCCNC4)ccc3C2=O)C(=O)N1 (stereo not drawn) [Compound I-282, 3-(1-oxo-5-(1,2,5,6-tetrahydropyridin-3-yl)isoindolin-2-yl)piperidine-2,6-dione] | 0% | > 30000 nM | > 30 µM | –
O=C1CCC(N2Cc3cc(C4CCN(Cc5ccccc5C(F)(F)F)CC4)ccc3C2=O)C(=O)N1 (stereo not drawn) [Compound I-106, 3-(1-oxo-5-(1-(2-(trifluoromethyl)benzyl)piperidin-4-yl)isoindolin-2-yl)piperidine-2,6-dione] | 50% | 14 nM | > 30 µM | –
Cc1ccc2nc(CN3CCC(c4ccc5c(c4)CN(C4CCC(=O)NC4=O)C5=O)CC3)cc(=O)n2c1 (stereo not drawn) [Compound I-221, 3-(5-(1-((7-methyl-4-oxo-4H-pyrido[1,2-a]pyrimidin-2-yl)methyl)piperidin-4-yl)-1-oxoisoindolin-2-yl)piperidine-2,6-dione] | 30% | 36 nM | > 50 µM | –

Further compounds by falling DC50 (IKZF2; [2]), results first:

inhibition at 10 µM (IKZF2; [1]) | DC50 (IKZF2; [2]) | DC50 (IKZF1) | Structure (SMILES) | inhibition at 10 µM (IKZF2; [3])
40% | 850 nM | > 30 µM | O=C1CCC(N2Cc3cc(C4CCN(C(CO)c5ccccc5)CC4)ccc3C2=O)C(=O)N1 (single isomer, unassigned) [Compound I-249] | –
60% | 250 nM | > 30 µM | O=C(O)Cc1ccc(CN2CCC(c3ccc4c(c3)CN(C3CCC(=O)NC3=O)C4=O)CC2)cc1 (stereo not drawn) [Compound I-231, 2-(4-((4-(2-(2,6-dioxopiperidin-3-yl)-1-oxoisoindolin-5-yl)piperidin-1-yl)methyl)phenyl)acetic acid] | –
60% | 110 nM | > 25 µM | O=C1CCC(N2Cc3cc(C4CCN(Cc5cscn5)CC4)ccc3C2=O)C(=O)N1 (stereo not drawn) [Compound I-238, 3-(1-oxo-5-(1-(thiazol-4-ylmethyl)piperidin-4-yl)isoindolin-2-yl)piperidine-2,6-dione] | –
80% | 52 nM | > 30 µM | O=C1CCC(N2Cc3cc(C4CCN(Cc5ccc6c(c5)OCCO6)CC4)ccc3C2=O)C(=O)N1 (stereo not drawn) [Compound I-83, 3-(5-(1-((2,3-dihydrobenzo[b][1,4]dioxin-6-yl)methyl)piperidin-4-yl)-1-oxoisoindolin-2-yl)piperidine-2,6-dione] | –
60% | 39 nM | > 30 µM | O=C1CCC(N2Cc3cc(C4CCN(Cc5c(F)cccc5F)CC4)ccc3C2=O)C(=O)N1 (stereo not drawn) [Compound I-24, 3-(5-(1-(2,6-difluorobenzyl)piperidin-4-yl)-1-oxoisoindolin-2-yl)piperidine-2,6-dione] | –
70% | 18 nM | > 30 µM | CCOc1ccc(CN2CCC(c3ccc4c(c3)CN(C3CCC(=O)NC3=O)C4=O)CC2)cc1 (stereo not drawn) [Compound I-287, 3-(5-(1-(4-ethoxybenzyl)piperidin-4-yl)-1-oxoisoindolin-2-yl)piperidine-2,6-dione] | –
60% | 17 nM | > 30 µM | O=C1CCC(N2Cc3cc(C4CCN(Cc5ccc(F)cc5F)CC4)ccc3C2=O)C(=O)N1 (stereo not drawn) [Compound I-101, 3-(5-(1-(2,4-difluorobenzyl)piperidin-4-yl)-1-oxoisoindolin-2-yl)piperidine-2,6-dione] | –
80% | 13 nM | > 30 µM | O=C1CCC(N2Cc3cc(C4CCN(Cc5ccc6c(c5)OC(F)(F)O6)CC4)ccc3C2=O)C(=O)N1 (stereo not drawn) [Compound I-87, 3-(5-(1-((2,2-difluorobenzo[b][1,3]dioxol-5-yl)methyl)piperidin-4-yl)-1-oxoisoindolin-2-yl)piperidine-2,6-dione] | –
75% | 11 nM | > 30 µM | O=C1CCC(N2Cc3cc(C4CCN(Cc5ccc(CF)cc5)CC4)ccc3C2=O)C(=O)N1 (stereo not drawn) [Compound I-63, 3-(5-(1-(4-(fluoromethyl)benzyl)piperidin-4-yl)-1-oxoisoindolin-2-yl)piperidine-2,6-dione] | –
60% | 9 nM | > 30 µM | Cc1ccc(CN2CCC(c3ccc4c(c3)CN(C3CCC(=O)NC3=O)C4=O)CC2)c(C)c1 (stereo not drawn) [Compound I-42, 3-(5-(1-(2,4-dimethylbenzyl)piperidin-4-yl)-1-oxoisoindolin-2-yl)piperidine-2,6-dione] | –
